Experiments:
Cholinesterase = Cholinesterase (Equus caballus, UniProt P81908)
Description: Inhibition of equine serum BChE using butyrylthiocholine iodide as substrate preincubated for 5 mins followed by substrate addition measured every minute for 10 mins by Ellman's method

Acetylcholinesterase [1] = target: T1, Acetylcholinesterase (Homo sapiens, UniProt P22303); experiment: Inhibition of human erythrocyte AChE using acetylthiocholine iodide as substrate preincubated for 5 mins followed by substrate addition measured every minute for 10 mins by Ellman's method
[2] = Effective permeability of compound at 100 uM at pH 7.4 by PAMPA; format: ADME; settings: read-out: Peff
[3] = Selectivity index, ratio of IC50 for equine serum BChE to IC50 for human erythrocyte AChE
[4] = Half life in 2% riboflavine solution in PBS at 25 uM by HPLC-UV analysis; format: physicochemical
in vitro = settings: PAMPA, pH 7.4
[5] = target: Cholinesterase (Equus caballus) (UniProt P81908); experiment: Inhibition of equine serum BChE using butyrylthiocholine iodide as substrate at 10 uM preincubated for 5 mins followed by substrate addition measured every minute for 10 mins by Ellman's method relative to control
Chain of Cholinesterase (Equus caballus) (P81908 whole entry): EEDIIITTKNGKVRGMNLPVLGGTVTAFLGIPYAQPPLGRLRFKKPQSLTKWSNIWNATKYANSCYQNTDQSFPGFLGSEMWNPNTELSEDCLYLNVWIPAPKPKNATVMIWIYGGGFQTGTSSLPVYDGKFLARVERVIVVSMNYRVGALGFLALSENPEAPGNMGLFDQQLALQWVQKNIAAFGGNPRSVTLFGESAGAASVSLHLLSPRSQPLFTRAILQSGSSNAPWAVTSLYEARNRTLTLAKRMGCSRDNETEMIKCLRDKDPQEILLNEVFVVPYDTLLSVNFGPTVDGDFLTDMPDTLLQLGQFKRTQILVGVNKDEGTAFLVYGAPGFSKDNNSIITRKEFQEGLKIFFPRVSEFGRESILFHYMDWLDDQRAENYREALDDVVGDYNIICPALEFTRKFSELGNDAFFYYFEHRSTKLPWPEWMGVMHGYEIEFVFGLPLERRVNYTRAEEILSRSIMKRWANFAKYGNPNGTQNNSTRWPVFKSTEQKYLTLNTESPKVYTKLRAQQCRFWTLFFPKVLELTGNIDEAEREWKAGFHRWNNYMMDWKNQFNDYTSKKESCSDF

Acetylcholinesterase [6] = target: T1, Acetylcholinesterase; experiment: Inhibition of human erythrocyte AChE using acetylthiocholine iodide as substrate at 10 uM preincubated for 5 mins followed by substrate addition measured every minute for 10 mins by Ellman's method relative to control

Chain of Cholinesterase (P81908 whole entry): as above
T1 sequence (P22303 whole entry): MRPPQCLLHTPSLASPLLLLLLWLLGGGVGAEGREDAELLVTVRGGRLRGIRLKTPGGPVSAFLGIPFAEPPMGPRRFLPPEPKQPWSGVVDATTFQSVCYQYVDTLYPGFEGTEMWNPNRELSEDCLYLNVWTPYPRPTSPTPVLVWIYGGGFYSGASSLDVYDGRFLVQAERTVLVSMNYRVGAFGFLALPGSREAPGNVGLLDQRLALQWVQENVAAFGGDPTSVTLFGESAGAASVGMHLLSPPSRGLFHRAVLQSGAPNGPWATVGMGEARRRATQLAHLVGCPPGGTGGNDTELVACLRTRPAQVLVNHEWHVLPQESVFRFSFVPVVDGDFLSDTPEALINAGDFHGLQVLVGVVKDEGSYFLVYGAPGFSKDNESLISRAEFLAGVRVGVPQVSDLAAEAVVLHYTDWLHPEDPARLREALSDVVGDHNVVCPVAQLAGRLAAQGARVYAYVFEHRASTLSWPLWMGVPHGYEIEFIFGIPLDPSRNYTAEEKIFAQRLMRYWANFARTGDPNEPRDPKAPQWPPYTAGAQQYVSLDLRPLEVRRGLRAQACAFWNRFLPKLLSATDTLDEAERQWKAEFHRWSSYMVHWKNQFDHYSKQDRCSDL

COc1ccc(C(=O)CCC2C=CN(Cc3cccc(Cl)c3)C=C2C(C)=O)cc1OC (centres undefined)
IC50 (Cholinesterase): > 10 µM | IC50 (Acetylcholinesterase [1]): > 10000 nM | Papp at 100 µM [2]: 18.2 ×10⁻⁶ cm/s

COc1ccc2c(c1)CCC(CC1C=CN(Cc3ccccc3F)C=C1C(C)=O)C2=O (centres undefined)
IC50 (Acetylcholinesterase [1]): > 10000 nM

COc1ccc2c(c1)CCC(Cc1cc[n+](Cc3ccccc3C)cc1C(N)=O)C2=O (centres undefined)
IC50 (Cholinesterase): 9.11 µM | IC50 (Acetylcholinesterase [1]): 894 nM | Ratio IC50 [3]: 10.2

COc1ccc(C(=O)CCCCc2cc[n+](Cc3cccc(Cl)c3)cc2C(N)=O)cc1OC
IC50 (Cholinesterase): > 10 µM | IC50 (Acetylcholinesterase [1]): > 10000 nM

COc1ccc2c(c1)CCC(CC1C=CN(Cc3ccc(Cl)cc3)C=C1C(C)=O)C2=O (centres undefined)
IC50 (Cholinesterase): > 10 µM | IC50 (Acetylcholinesterase [1]): > 10000 nM

COc1ccc2c(c1)CCC(CC1C=CN(Cc3cccc(C(F)(F)F)c3)C=C1C(C)=O)C2=O (centres undefined)
IC50 (Cholinesterase): > 10 µM | IC50 (Acetylcholinesterase [1]): > 10000 nM

CNC(=O)c1c[n+](Cc2ccccc2C)ccc1CC1CCc2cc(OC)ccc2C1=O (centres undefined)
IC50 (Cholinesterase): 2.51 µM | IC50 (Acetylcholinesterase [1]): > 10000 nM

COc1cc2c(cc1OC)C(=O)C(Cc1cc[n+](Cc3cccc(O)c3)cc1C(N)=O)C2 (centres undefined)
IC50 (Cholinesterase): 5.36 µM | IC50 (Acetylcholinesterase [1]): > 10000 nM

COc1cc2c(cc1OC)C(=O)C(CC1C=CN(Cc3cccc(Cl)c3)C=C1C(N)=O)C2 (stereo in doubt; 23h-B)
IC50 (Cholinesterase): 19.9 µM | t1/2 ([4]; buffer, 25 µM): 17.7 min | IC50 (Acetylcholinesterase [1]): 27000 nM

COc1ccc2c(c1)CCC(Cc1cc[n+](Cc3cccc(Cl)c3)cc1C(C)=O)C2=O (centres undefined)
Ratio IC50 [3]: 6.9

COc1ccc2c(c1)CCC(CC1C=CN(Cc3ccccc3C)C=C1C(N)=O)C2=O (centres undefined)
IC50 (Cholinesterase): > 10 µM | IC50 (Acetylcholinesterase [1]): > 10000 nM | Papp at 100 µM [2]: 18.8 ×10⁻⁶ cm/s

COc1ccc(C(=O)CCC2C=CN(Cc3cccc(Cl)c3)C=C2C#N)cc1OC (centres undefined)
IC50 (Cholinesterase): > 10 µM | IC50 (Acetylcholinesterase [1]): 923 nM | Papp at 100 µM [2]: 15.1 ×10⁻⁶ cm/s

COc1cc2c(cc1OC)C(=O)C(Cc1cc[n+](Cc3cccc(Cl)c3)cc1C(=O)O)C2 (centres undefined)
IC50 (Cholinesterase): > 10 µM | IC50 (Acetylcholinesterase [1]): > 10000 nM

C[C@]12CCC(=O)C=C1CC[C@@H]1[C@@H]2C(=O)C[C@@]2(C)[C@H]1CC[C@]2(O)C(=O)CO [CORTISONE]
Papp at 100 µM [2]: 16.8 to 20.3 ×10⁻⁶ cm/s

Cn1c(=O)c2[nH]cnc2n(C)c1=O.O [THEOPHYLLINE]
Papp at 250 µM (in vitro): 0.4 to 0.66 ×10⁻⁶ cm/s

COc1cc2c(cc1OC)C(=O)C(Cc1cc[n+](Cc3cccc(C)n3)cc1C(N)=O)C2 (centres undefined)
IC50 (Cholinesterase): > 10 µM | IC50 (Acetylcholinesterase [1]): 1860 nM

COc1ccc2c(c1)CCC(Cc1cc[n+](CC3CCCCC3)cc1C(C)=O)C2=O (centres undefined)
IC50 (Cholinesterase): 0.341 µM | IC50 (Acetylcholinesterase [1]): 210 nM | Ratio IC50 [3]: 1.6

COc1ccc(C(=O)CCc2cc[n+](Cc3ccccc3C(F)(F)F)cc2C#N)cc1OC
IC50 (Acetylcholinesterase [1]): 275 nM

COc1ccc2c(c1)CCC(Cc1cc[n+](Cc3cccc(C(F)(F)F)c3)cc1C(C)=O)C2=O (centres undefined)
Ratio IC50 [3]: 18

COc1ccc2c(c1)CCC(CC1C=CN(Cc3ccccc3Cl)C=C1C(C)=O)C2=O (centres undefined)
IC50 (Acetylcholinesterase [1]): > 10000 nM | Papp at 100 µM [2]: 21.2 ×10⁻⁶ cm/s

COc1ccc2c(c1)CCC(Cc1cc[n+](Cc3cccc(C)c3)cc1Br)C2=O (centres undefined)
Ratio IC50 [3]: 40

COc1cc2c(cc1OC)C(=O)C(CC1C=CN(Cc3ccccc3)C=C1C(C)=O)CC2 (centres undefined) [listing 1 of 2 here]
Papp at 100 µM [2]: 20.4 ×10⁻⁶ cm/s

COc1ccc2c(c1)CCC(Cc1cc[n+](Cc3ccc(C)cc3)cc1C(C)=O)C2=O (centres undefined)
Ratio IC50 [3]: 7.4

COc1ccc(C(=O)CCC2C=CN(Cc3cccc(Cl)c3)C=C2C(N)=O)cc1OC (centres undefined)
IC50 (Cholinesterase): > 10 µM | IC50 (Acetylcholinesterase [1]): > 10000 nM | Papp at 100 µM [2]: 18.9 ×10⁻⁶ cm/s

COc1ccc2c(c1)CCC(Cc1cc[n+](Cc3cccc(F)c3)cc1C(C)=O)C2=O (centres undefined)
Ratio IC50 [3]: 7.5

COc1ccc2c(c1)CCC(Cc1cc[n+](Cc3ccc(Cl)cc3)cc1C(C)=O)C2=O (centres undefined)
Ratio IC50 [3]: 10.7

COc1cc2c(cc1OC)C(=O)C(Cc1cc[n+](Cc3nc4ccccc4o3)cc1C(N)=O)C2 (centres undefined)
IC50 (Cholinesterase): > 10 µM | IC50 (Acetylcholinesterase [1]): 9270 nM

COC(=O)c1c[n+](Cc2cccc(Cl)c2)ccc1CCC(=O)c1ccc(OC)c(OC)c1
IC50 (Cholinesterase): 2.03 µM | IC50 (Acetylcholinesterase [1]): 171 nM

COc1ccc2c(c1)CCC(Cc1cc[n+](Cc3ccccc3F)cc1C(C)=O)C2=O (centres undefined)
Ratio IC50 [3]: 11

COc1cc2c(cc1OC)C(=O)C(CC1C=CN(Cc3ccccc3)C=C1C(C)=O)CC2 (stereo in doubt; 24a-C)
IC50 (Cholinesterase): 1.67 µM | IC50 (Acetylcholinesterase [1]): 173 nM

COc1cc2c(cc1OC)C(=O)C(CC1C=CN(Cc3ccccc3)C=C1C(C)=O)CC2 (stereo in doubt; 24a-B)
IC50 (Cholinesterase): 1.83 µM | IC50 (Acetylcholinesterase [1]): 286 nM

COc1cc2c(cc1OC)C(=O)C(Cc1cc[n+](Cc3ccc(S(N)(=O)=O)cc3)cc1C(N)=O)C2 (centres undefined)
IC50 (Cholinesterase): > 10 µM | IC50 (Acetylcholinesterase [1]): > 10000 nM

COc1cc2c(cc1OC)C(=O)C(CC1C=CN(Cc3ccccc3)C=C1C(C)=O)CC2 (centres undefined) [listing 2 of 2 here]
inhibition [5]: 45% | inhibition (Acetylcholinesterase [6]): 36%

COc1ccc(C(=O)CCc2cc[n+](Cc3ccc(Cl)cc3)cc2C#N)cc1OC
IC50 (Cholinesterase): > 10 µM | IC50 (Acetylcholinesterase [1]): > 10000 nM

COc1ccc2c(c1)CCC(CC1C=CN(Cc3cccc(F)c3)C=C1C(C)=O)C2=O (centres undefined)
IC50 (Acetylcholinesterase [1]): > 10000 nM

COc1ccc2c(c1)CCC(Cc1cc[n+](Cc3ccccc3C)cc1C(C)=O)C2=O (centres undefined)
Ratio IC50 [3]: 43.3

COc1ccc(C(=O)CCc2cc[n+](Cc3cccc(Cl)c3)cc2C#N)cc1OC
IC50 (Cholinesterase): 4.24 µM | IC50 (Acetylcholinesterase [1]): 22.2 nM | Ratio IC50 [3]: 191

COc1ccc2c(c1)CCC(CC1C=CN(Cc3cccc(C)c3)C=C1C(C)=O)C2=O (centres undefined)
IC50 (Acetylcholinesterase [1]): > 10000 nM

COc1cc2c(cc1OC)C(=O)C(CCCc1cc[n+](Cc3cccc(Cl)c3)cc1C(N)=O)C2 (centres undefined)
IC50 (Cholinesterase): 3.26 µM | IC50 (Acetylcholinesterase [1]): > 10000 nM

COC(=O)C1=CN(Cc2cccc(Cl)c2)C=CC1CCC(=O)c1ccc(OC)c(OC)c1 (centres undefined)
IC50 (Cholinesterase): > 10 µM | IC50 (Acetylcholinesterase [1]): > 10000 nM

COc1cc2c(cc1O)C(=O)C(Cc1cc[n+](Cc3cccc(Cl)c3)cc1C(C)=O)C2 (centres undefined)
IC50 (Cholinesterase): > 10 µM | IC50 (Acetylcholinesterase [1]): 2.7 nM

COc1cc2c(cc1OC)C(=O)C(Cc1cc[n+](Cc3ccccc3)cc1Br)C2 (centres undefined)
Ratio IC50 [3]: 4970

CC(=O)c1c[n+](Cc2ccccc2C)ccc1CC1Cc2cc(OCC(F)(F)F)ccc2C1=O (centres undefined)
IC50 (Cholinesterase): 4.15 µM | IC50 (Acetylcholinesterase [1]): 37.1 nM | Ratio IC50 [3]: 112

CC(=O)c1c[n+](Cc2cccc(Cl)c2)ccc1CC1Cc2cc(F)ccc2C1=O (centres undefined)
IC50 (Acetylcholinesterase [1]): > 10000 nM

CC(=O)C1=CN(Cc2cccc(Cl)c2)C=CC1CC1Cc2cc(F)ccc2C1=O (centres undefined)
IC50 (Cholinesterase): > 10 µM | IC50 (Acetylcholinesterase [1]): > 10000 nM

COc1ccc2c(c1)CCC(CC1C=CN(Cc3ccc(C)cc3)C=C1C(C)=O)C2=O (centres undefined)
IC50 (Cholinesterase): > 10 µM | IC50 (Acetylcholinesterase [1]): > 10000 nM

COc1ccc(C(=O)CCc2cc[n+](Cc3cccc(Cl)c3)cc2C(C)=O)cc1OC
IC50 (Cholinesterase): 3.2 µM | IC50 (Acetylcholinesterase [1]): 144 nM | Ratio IC50 [3]: 22.2

COC(=O)c1ccccc1C[n+]1ccc(CC2Cc3cc(OC)c(OC)cc3C2=O)c(C(=O)Oc2c(Cl)cc(Cl)cc2Cl)c1 (centres undefined)
IC50 (Cholinesterase): 0.373 µM | IC50 (Acetylcholinesterase [1]): 69.3 nM | Ratio IC50 [3]: 5.38

COc1ccc(C(=O)CCc2cc[n+](Cc3cccc(Cl)c3)cc2C(=O)O)cc1OC
IC50 (Acetylcholinesterase [1]): 18.1 nM

COc1ccc2c(c1)CCC(Cc1cc[n+](Cc3ccccc3C)cc1C(F)(F)F)C2=O (centres undefined)
IC50 (Cholinesterase): 2.24 µM | IC50 (Acetylcholinesterase [1]): 242 nM | Ratio IC50 [3]: 9.2

COc1ccc(C(=O)CCc2cc[n+](Cc3cccc(Cl)c3)cc2C(N)=O)cc1OC
IC50 (Cholinesterase): > 10 µM | IC50 (Acetylcholinesterase [1]): > 10000 nM

COc1cc2c(cc1OC)C(=O)C(Cc1cc[n+](Cc3cccc(Cl)c3)cc1C(C)=O)CC2 (centres undefined)
IC50 (Acetylcholinesterase [1]): 21 nM

COc1cc2c(cc1OC)C(=O)C(CC1C=CN(Cc3ccccc3C)C=C1C(C)=O)C2 (centres undefined)
Papp at 100 µM [2]: 19.1 ×10⁻⁶ cm/s

COc1ccc2c(c1)CCC(Cc1cc[n+](Cc3ccccc3Cl)cc1C(C)=O)C2=O (centres undefined)
IC50 (Acetylcholinesterase [1]): 29.5 nM | Ratio IC50 [3]: 8.6

COc1cc2c(cc1OC)C(=O)C(CC1C=CN(Cc3ccccc3)C=C1C(C)=O)CC2 (stereo in doubt; 24a-D)
IC50 (Cholinesterase): 9.07 µM | IC50 (Acetylcholinesterase [1]): 924 nM

COc1cc2c(cc1OC)C(=O)C(CC1C=CN(Cc3cccc(Cl)c3)C=C1C(N)=O)C2 (stereo in doubt; 23h-A)
IC50 (Cholinesterase): 14.3 µM | half-life at 25 µM ([4]; 2% riboflavine solution in PBS): 24.6 min | IC50 (Acetylcholinesterase [1]): 5340 nM

COc1cc2c(cc1OC)C(=O)C(Cc1cc[n+](CCc3ccccc3)cc1C(N)=O)C2 (centres undefined)
IC50 (Cholinesterase): > 10 µM | IC50 (Acetylcholinesterase [1]): 896 nM

COc1cc2c(cc1OC)C(=O)C(CC1C=CN(Cc3cccc(Cl)c3)C=C1C(N)=O)C2 (centres undefined)
inhibition [5]: 6% | inhibition (Acetylcholinesterase [6]): 29%

COc1ccc2c(c1)CCC(Cc1cc[n+](Cc3ccccc3Cl)cc1C(N)=O)C2=O (centres undefined)
IC50 (Cholinesterase): 2.64 µM | IC50 (Acetylcholinesterase [1]): 379 nM | Ratio IC50 [3]: 6.9

COc1ccc2c(c1)CCC(Cc1cc[n+](Cc3cccc(C)c3)cc1C(C)=O)C2=O (centres undefined)
Ratio IC50 [3]: 5.3

CC(=O)c1c[n+](Cc2cccc(Cl)c2)ccc1CC1Cc2cc(O)ccc2C1=O (centres undefined)
IC50 (Cholinesterase): > 10 µM | IC50 (Acetylcholinesterase [1]): 116 nM

COc1ccc(C(=O)CCc2cc[n+](Cc3cccc(F)c3)cc2C#N)cc1OC
IC50 (Cholinesterase): > 10 µM | IC50 (Acetylcholinesterase [1]): 11 nM

CCC[n+]1ccc(CC2CCc3cc(OC)ccc3C2=O)c(C(C)=O)c1 (centres undefined)
IC50 (Cholinesterase): > 10 µM | IC50 (Acetylcholinesterase [1]): > 10000 nM
